Experiment [1] deals with SH-SY5Y human neuroblastoma cells. Briefly: Cell survival (MTS assay), SH-SY5Y. Type of experiment: cell-based. On the procedure:
(§1) SH-SY5Y human neuroblastoma cells were grown in DMEM medium (Invitrogen, Cergy Pontoise, France). […] Human foreskin primary fibroblasts (kindly provided by Dr. Gilles Ponzio) were grown in DMEM supplemented with 2 mM L-glutamine and 20 mM HEPES. All the media were supplemented with antibiotics (penicillin-streptomycin) from Lonza and 10% volume of FCS from Invitrogen. Cells were cultured at 37° C. with 5% CO2. Drug treatments were performed on exponentially growing cultures at the indicated time and concentrations. Control experiments were carried out using appropriate dilutions of DMSO. MDCK cell-lines were used to test compounds PKD.

Experiment [2] addresses T1, CDK5/p25 (Homo sapiens, UniProt Q00535).
T1 construct: made in house
In words: CDK5/p25 kinase assay. Type of experiment: biochemical. On the procedure:
(§2) Controls were performed with appropriate dilutions of dimethylsulfoxide.
(§3) ATP (3,000 Ci/mmol; 10 mCi/ml) in a final volume of 30 μl. After 30 min. incubation at 30° C., 25 μl aliquots of supernatant were spotted onto 2.5×3 cm pieces of Whatman P81 phosphocellulose paper, and, 20 sec. later, the filters were washed five times (for at least 5 min. each time) in a solution of 10 ml phosphoric acid/liter of water. The wet filters were counted in the presence of 1 ml ACS (Amersham) scintillation fluid.

Experiment [3] concerns the target GSK-3α/β. Briefly: GSK-3α/β kinase assay. It counts as biochemical, porcine. On the procedure: (§4) Blank values were subtracted and activities expressed in % of the maximal activity, i.e. in the absence of inhibitors. Controls were performed with appropriate dilutions of dimethylsulfoxide.
Experiment [4] deals with CDK1/cyclin B. Briefly: CDK1/cyclin B kinase assay. It counts as biochemical, starfish. On the procedure: as §2, §3
Experiment [5] addresses CK1δ/ε. Briefly: CK1 kinase assay. Type of experiment: biochemical, porcine. On the procedure: as §4
The target in experiment [6] is T2, CDK9/cyclin T (Homo sapiens, UniProt P50750).
T2 construct: made in house; host or cells: insect cells
In words: CDK9/cyclin T kinase assay. It counts as biochemical. On the procedure: as §4

Experiment [7] deals with T3, Erk2 (Sus scrofa, UniProt A0A8W4FG96).
T3 construct: 1000 μg of porcine brain lysate; from tissue; host or cells: porcine brain lysate
In words: Competition on agarose beads with porcine brain lysate (silver staining assay), Erk2. Type of experiment: binding. Particulars: FIG. 1, 500 μM or 100 μM.

In experiment [8] the test system is RNA polymerase II Ser2 phosphorylation. Briefly: Western blot, RNA polymerase II Ser2 phosphorylation in SH-SY5Y. It counts as cell-based, human. Conditions: FIG. 10. On the procedure:
SH-SY5Y human neuroblastoma cells were grown in DMEM medium (Invitrogen, Cergy Pontoise, France). The HEK 293 human embryonic kidney cell line was grown in MEM medium from Invitrogen. Human foreskin primary fibroblasts (kindly provided by Dr. Gilles Ponzio) were grown in DMEM supplemented with 2 mM L-glutamine and 20 mM HEPES. All the media were supplemented with antibiotics (penicillin-streptomycin) from Lonza and 10% volume of FCS from Invitrogen. Cells were cultured at 37° C. with 5% CO2. Drug treatments were performed on exponentially growing cultures at the indicated time and concentrations. Control experiments were carried out using appropriate dilutions of DMSO. MDCK cell-lines were used to test compounds PKD.
Cells were resuspended and lysed for 30 minutes at 4° C. in Homogenization Buffer [60 mM β-glycerophosphate, 15 mM p-nitrophenyl phosphate, 25 mM MOPS (pH 7.2), 15 mM EGTA, 15 mM MgCl2, 1 mM dithiothreitol, 1 mM sodium vanadate, 1 mM NaF, 1 mM phenylphosphate, 0.1% Nonidet P-40 and protease inhibitor cocktail] and sonicated. After centrifugation (14000 rpm for 15 minutes at 4° C.), the protein concentration was determined in the supernatants by the Bradford protein assay (Bio-Rad).
Whole cell extracts were prepared in buffer containing 100 mM Tris/HCl (pH, 6.8), 1 mM EDTA, 2% SDS and protease inhibitor cocktail. Following heat denaturation for 5 minutes, proteins were separated on 10% or 7% NuPAGE pre-cast Bis-Tris or Tris-Acetate polyacrylamide mini gels (Invitrogen) with MOPS SDS (all but cytochrome C, RNA polymerase II and phospho-Ser2—RNA polymerase II Western blots), MES SDS (cytochrome C), or Tris-Acetate SDS (RNA polymerase II and phospho-Ser2—RNA polymerase II) running buffer depending on protein size. Proteins were transferred to 0.45 μm nitrocellulose filters (Schleicher and Schuell). These were blocked with 5% low fat milk in Tris-Buffered Saline—Tween-20, incubated for 1 h with antibodies (anti-actin: 1:2000) or overnight at 4° C. (cytochome C: 1:500), Rb (1:500), phosphor-Rb (1:500), phospho-Thr320-PP1α (1:1000), RNA polymerase II (1:500), phosphor-Ser2-RNA polymerase II (1:500), Mcl-1 (1:500), caspase-9 (1:1000) and analyzed by Enhanced Chemiluminescence (ECL, Amersham).

The target in experiment [9] is T4, pyridoxal kinase (PDXK) (Sus scrofa, UniProt O46560).
T4 construct: 1000 μg of porcine brain lysate; from tissue; host or cells: porcine brain lysate
Briefly: Competition on agarose beads with porcine brain lysate (silver staining assay), pyridoxal kinase. It counts as binding. Particulars: FIG. 1, 500 μM or 100 μM. An excerpt: Indeed, the interaction of the compounds of the invention with pyridoxal kinase has been determined by the following method: (silver staining assay)

For experiment [10], the target named is Erk2 (Homo sapiens, UniProt P28482). In words: Erk2 kinase assay. Type of experiment: biochemical. Particulars: Table 5. On the procedure: as §4
(§5) The compounds were tested at various concentrations in the kinase assays, as described in the Methods section.

The target of experiment [11] is T5, CDK2/cyclin A (Homo sapiens, UniProt P24941).
T5 construct: made in house; host or cells: insect cells
Briefly: CDK2/cyclin A kinase assay. Type of experiment: biochemical. On the procedure:
as §4
CDK2/cyclin A (human, recombinant, expressed in insect cells) was assayed as described for CDK1/cyclin B.

Experiment [12] deals with DYRK1A (Homo sapiens, UniProt Q13627). Briefly: DYRK1A kinase assay. Type of experiment: biochemical. On the procedure:
as §4, §5

Experiment [13] deals with B2-CLL lymphocytes. In words: Survival / cell death of B2-CLL lymphocytes from patients. Type of experiment: cell-based, human. Conditions: Homo sapiens, Lymphocyte.
Protocol: Cell viability was determined by measuring the reduction of 3-(4,5-dimethylthiazol-2-yl)-5-(3-carboxymethoxyphenyl)-2-(4-sulfophenyl)-2/H-tetrazolium (MTS). Cell death was determined by measuring the level of lactate dehydrogenase activity (LDH) released upon cell lysis.
Experiment [14] concerns the target CDK2/cyclin E (Homo sapiens, UniProt P24941). Briefly: CDK2/cyclin E kinase assay. Type of experiment: biochemical. Particulars: Table 5. On the procedure: as §2, §5
Experiment [15] concerns HCT116 (Oncodesign). In words: Cell survival, HCT116 (Oncodesign). Type of experiment: cell-based. Conditions: Homo sapiens, HCT-116; Table 6.
Experiment [16] relates to LS 174T (Oncodesign). Briefly: Cell survival, LS 174T (Oncodesign). Type of experiment: cell-based. Conditions: Homo sapiens, LS174T; Table 6.
Experiment [17] relates to HEK 293 human embryonic kidney cell line. In words: Cell survival (MTS assay), HEK293. Type of experiment: cell-based. Conditions: HEK293, Table 4, MTS assay. On the procedure: as §1
[18] abbreviates: read-out: Inhibition of the tumor cell-line SHSY-5Y, IC50.
The mark [19] stands for this setting: read-out: Inhibition of CDK5/p25, IC50.
Setting [20] is: read-out: Inhibition of GSK3beta, IC50.
The mark [21] stands for this setting: read-out: Inhibition of CDK1/cyclin B, IC50.
Where [22] appears, read: read-out: Inhibition of CK1, IC50.
[23] abbreviates: Table 4, MTS assay, read-out: SH-SY5Y cell survival.
The mark [24] stands for this setting: read-out: Inhibition of DYRK1A, IC50.

“And” between values parts separate entries of the source, which are not always exact repeats. Equal entries are not always repeated. Where two headings read alike, the source gives them in different places. Where only a bound is given, the exact number is not on record here.

T1 sequence (Q00535 whole entry): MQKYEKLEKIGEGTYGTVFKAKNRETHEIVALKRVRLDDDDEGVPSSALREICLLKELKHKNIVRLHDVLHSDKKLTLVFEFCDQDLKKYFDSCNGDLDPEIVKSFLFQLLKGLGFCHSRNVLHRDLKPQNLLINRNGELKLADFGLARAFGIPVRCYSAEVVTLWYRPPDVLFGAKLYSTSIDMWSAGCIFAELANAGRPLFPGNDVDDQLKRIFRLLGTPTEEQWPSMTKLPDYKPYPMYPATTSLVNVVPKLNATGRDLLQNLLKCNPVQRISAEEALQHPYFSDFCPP
T1 sequence (Q15078 99-307 partner limits assumed): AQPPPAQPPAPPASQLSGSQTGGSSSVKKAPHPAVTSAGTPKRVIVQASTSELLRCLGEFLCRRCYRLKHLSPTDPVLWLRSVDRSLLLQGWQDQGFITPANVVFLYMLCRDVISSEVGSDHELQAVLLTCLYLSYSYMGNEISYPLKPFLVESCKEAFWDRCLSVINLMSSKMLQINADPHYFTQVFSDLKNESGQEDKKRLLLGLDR
T2 sequence (P50750 whole entry): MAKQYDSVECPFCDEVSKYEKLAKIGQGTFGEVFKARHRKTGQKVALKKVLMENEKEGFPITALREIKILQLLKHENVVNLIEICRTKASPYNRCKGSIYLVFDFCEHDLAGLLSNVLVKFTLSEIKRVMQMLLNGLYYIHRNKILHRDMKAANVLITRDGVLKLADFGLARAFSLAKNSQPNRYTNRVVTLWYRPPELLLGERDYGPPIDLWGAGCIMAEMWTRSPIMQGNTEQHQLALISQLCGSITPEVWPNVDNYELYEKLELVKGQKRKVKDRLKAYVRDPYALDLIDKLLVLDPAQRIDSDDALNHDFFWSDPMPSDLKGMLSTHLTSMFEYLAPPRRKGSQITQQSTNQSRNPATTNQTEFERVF
T2 sequence (O60563 whole entry partner): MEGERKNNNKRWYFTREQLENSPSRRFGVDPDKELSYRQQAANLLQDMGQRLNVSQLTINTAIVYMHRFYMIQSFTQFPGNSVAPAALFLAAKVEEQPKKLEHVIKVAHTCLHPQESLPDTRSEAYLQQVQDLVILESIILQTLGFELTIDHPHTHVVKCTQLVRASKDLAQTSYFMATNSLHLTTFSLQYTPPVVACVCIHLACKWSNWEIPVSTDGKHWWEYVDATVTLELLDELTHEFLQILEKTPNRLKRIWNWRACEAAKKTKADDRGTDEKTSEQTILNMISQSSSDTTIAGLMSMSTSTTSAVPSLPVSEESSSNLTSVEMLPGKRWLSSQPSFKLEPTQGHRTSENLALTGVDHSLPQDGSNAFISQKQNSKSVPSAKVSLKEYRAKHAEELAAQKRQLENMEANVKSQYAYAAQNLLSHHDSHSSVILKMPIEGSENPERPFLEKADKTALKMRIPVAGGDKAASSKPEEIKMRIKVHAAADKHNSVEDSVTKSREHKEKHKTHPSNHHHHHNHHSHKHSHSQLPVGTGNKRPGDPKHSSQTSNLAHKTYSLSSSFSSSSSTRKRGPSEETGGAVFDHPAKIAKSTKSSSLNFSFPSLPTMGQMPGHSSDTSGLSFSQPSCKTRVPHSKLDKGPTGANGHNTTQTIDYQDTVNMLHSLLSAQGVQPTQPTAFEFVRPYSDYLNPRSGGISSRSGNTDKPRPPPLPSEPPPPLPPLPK
T3 sequence (A0A8W4FG96 1-358): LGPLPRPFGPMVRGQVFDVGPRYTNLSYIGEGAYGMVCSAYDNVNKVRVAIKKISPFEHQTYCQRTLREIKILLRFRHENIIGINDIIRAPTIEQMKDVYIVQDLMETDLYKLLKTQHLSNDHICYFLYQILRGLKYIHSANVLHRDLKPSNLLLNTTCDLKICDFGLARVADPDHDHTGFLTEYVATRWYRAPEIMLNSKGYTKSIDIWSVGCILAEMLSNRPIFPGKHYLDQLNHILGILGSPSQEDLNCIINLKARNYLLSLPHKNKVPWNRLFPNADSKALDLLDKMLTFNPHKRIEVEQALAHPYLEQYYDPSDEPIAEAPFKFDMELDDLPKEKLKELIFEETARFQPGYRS
Chain of Erk2 (Homo sapiens, UniProt P28482) (P28482 whole entry, species assumed): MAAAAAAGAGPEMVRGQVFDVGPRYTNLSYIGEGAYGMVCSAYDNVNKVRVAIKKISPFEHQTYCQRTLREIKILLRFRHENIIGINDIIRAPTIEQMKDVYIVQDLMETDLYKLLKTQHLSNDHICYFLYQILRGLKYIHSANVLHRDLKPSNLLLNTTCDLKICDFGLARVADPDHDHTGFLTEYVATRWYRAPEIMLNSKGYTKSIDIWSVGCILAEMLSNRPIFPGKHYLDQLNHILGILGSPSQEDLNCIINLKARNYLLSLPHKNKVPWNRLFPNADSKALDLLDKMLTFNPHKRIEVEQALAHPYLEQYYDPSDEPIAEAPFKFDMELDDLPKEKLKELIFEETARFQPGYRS
T4 sequence (O46560 whole entry): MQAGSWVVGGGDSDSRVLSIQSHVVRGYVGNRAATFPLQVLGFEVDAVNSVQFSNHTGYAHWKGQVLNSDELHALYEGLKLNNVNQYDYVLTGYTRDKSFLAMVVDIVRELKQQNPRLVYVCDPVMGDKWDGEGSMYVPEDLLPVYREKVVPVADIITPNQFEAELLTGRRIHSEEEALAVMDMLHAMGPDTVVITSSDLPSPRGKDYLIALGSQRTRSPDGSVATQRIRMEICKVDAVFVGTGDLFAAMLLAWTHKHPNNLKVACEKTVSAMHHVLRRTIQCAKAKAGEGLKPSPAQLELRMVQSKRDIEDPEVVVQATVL

For the molecule `CC(C)n1cnc2c(NCc3ccc(-c4ccccn4)cc3)cc(NC(CO)[C@@H](C)O)nc21` (stereo in doubt) [Ij, (R,R)-2-[[3-isopropyl-7-[[4-(2-pyridyl)phenyl]methylamino]imidazo[4,5-b]pyridin-5-yl]amino]butane-1,3-diol], the IC50 in experiment [1] (setting [18]) was 150 nM; in experiment [2] (setting [19]), 180 nM; in [3] (setting [20]), 13000 nM; in experiment [4] (setting [21]), 150 nM; in [5] (setting [22]), 530 nM; in experiment [6] (read-out: Inhibition of CDK9/cyclin T, IC50) it was 140 nM.
In the case of `CC[C@H](CO)Nc1nc(NCc2ccccc2)c2ncn(C(C)C)c2n1` [(R)-Roscovitine, Roscovitine], the “competitor effect for Erk2” value in experiment [7] was “exhibited a competitor effect”. Also, in [8], the “total RNA pol II” value is on record as “essentially constant”. For the same molecule, in [9], the “competitor effect for pyridoxal kinase (PDXK)” value is reported as “exhibited a competitor effect”.
As to `CC[C@@H](CO)Nc1cc(NCc2ccc(-c3ccccn3)cc2)c2ncn(C(C)C)c2n1` [(S)-perharidine D, (S)-7-[4-(2-Pyridyl)-benzylaminol]-5-[(2-butyl-1ol)amino]-3-iso-propylimidazo[4,5-b]pyridine], the IC50 in experiment [10] was determined as 9000 nM; in experiment [1] (Table 6, MTS assay, read-out: SH-SY5Y cell survival), 660 nM; in experiment [11] (Table 5, read-out: CDK2/cyclin A) it was 150 nM; in [12] (Table 5, read-out: DYRK1A), 2800 nM; in [13] (LLC B-cells, read-out: Cell death induction) it was 130 nM; in experiment [13] (Table 6, read-out: Chronic Lymphocytic Leukemia cell survival), 130 nM. The IC50 in experiment [2] (Table 5, read-out: CDK5/p25) came out at 200 nM; in experiment [3] (Table 5, read-out: GSK-3α/β), 24500 nM; in experiment [4] (Table 5, read-out: CDK1/cyclin B) it was 270 nM; in experiment [14] it was 100 nM; in experiment [5] (Table 5, read-out: CK1), 1900 nM; in experiment [15] it was 300 nM. The IC50 in experiment [6] (Table 5, read-out: CDK9/cyclin T) came to 120 nM; in [16], 99 nM.
On to `CC(C)n1cnc2c(NCc3ccccc3)cc([N+](=O)[O-])nc21` [Formula Ie], for which the IC50 in experiment [17] is 46000 nM; in [1] (setting [23]), 74000 nM; in [2] (Table 4, read-out: CDK5), 800 nM; in [3] (Table 4, read-out: GSK3), more than 10000 nM; in [4] (Table 4, read-out: CDK1), 1000 nM; in [5] (Table 4, read-out: CK1), 1000 nM.
On to `CC(C)n1cnc2c(NCc3ccccc3)cc(N)nc21` [Formula If], for which the IC50 in experiment [17] was more than 100000 nM; in [1] (setting [23]) it was more than 100000 nM; in experiment [2] (Table 4, read-out: CDK5), 3800 nM; in experiment [3] (Table 4, read-out: GSK3), more than 10000 nM; in experiment [4] (Table 4, read-out: CDK1) it was 4000 nM; in [5] (Table 4, read-out: CK1), 8000 nM.
For the molecule `CC(C)n1cnc2c(NCc3ccccc3)cc(NC(=O)C(F)(F)F)nc21` [Formula Ig], the IC50 was more than 100000 nM in experiment [17]; more than 100000 nM in experiment [1] (setting [23]); 630 nM in [2] (Table 4, read-out: CDK5); more than 10000 nM in experiment [3] (Table 4, read-out: GSK3); 530 nM in experiment [4] (Table 4, read-out: CDK1); 3000 nM in experiment [5] (Table 4, read-out: CK1).
On to `CC(C)n1cnc2c(NCc3ccc(-c4ccccn4)cc3)cc(NC[C@H](O)CO)nc21` [Ik, (2S)-3-[[3-isopropyl-7-[[4-(2-pyridyl)phenyl]methylamino]imidazo[4,5-b]pyridin-5-yl]amino]propane-1,2-diol], for which the IC50 was 180 nM in experiment [1] (setting [18]); 120 nM in experiment [11] (unit inferred, read-out: Inhibition of CDK2/cyclin A, IC50); 170 nM in experiment [2] (setting [19]); more than 10000 nM in [3] (setting [20]); 200 nM in experiment [4] (setting [21]); 380 nM in experiment [5] (setting [22]).
Consider `CC[C@@H](CO)Nc1cc(NCc2ccc(-c3ccccc3)cc2)c2ncn(C(C)C)c2n1` [Il, (2S)-2-[[3-isopropyl-7-[(4-phenylphenyl)methylamino]imidazo[4,5-b]pyridin-5-yl]amino]butan-1-ol], for which the IC50 in [12] (setting [24]) is 4500 nM; in [2] (unit inferred, read-out: Inhibition of CDK5/p25, IC50), 600 nM; in experiment [3] (setting [20]), more than 10000 nM; in experiment [5] (setting [22]), 2000 nM.
For the molecule `CC[C@H](CO)Nc1cc(NCc2ccc(-c3ccccc3)cc2)c2ncn(C(C)C)c2n1` [Im, (R) 2-[[3-isopropyl-7-[(4-phenylphenyl)methylamino]imidazo[4,5-b]pyridin-5-yl]amino]butan-1-ol], the IC50 in [2] (setting [19]) was 810 nM; in experiment [5] (setting [22]), 1200 nM.
`CC[C@@H](N)COc1cc(NCc2ccc(-c3ccccc3)cc2)c2ncn(C(C)C)c2n1` [In, (R)-5-(2-aminobutoxy)-3-isopropyl-N-[(4-phenylphenyl)methyl]imidazo[4,5-b]pyridine-7-amine]: the IC50 in experiment [12] (setting [24]) was 4000 nM; in [2] (setting [19]) it was 550 nM; in experiment [3] (setting [20]), 7000 nM; in experiment [5] (setting [22]) it was 120 nM.
Take `CC[C@H](N)COc1cc(NCc2ccc(-c3ccccc3)cc2)c2ncn(C(C)C)c2n1` [Ip, (S)-5-(2-aminobutoxy)-3-isopropyl-N-[(4-phenylphenyl)methyl]imidazo[4,5-b]pyridin-7-amine]: the IC50 in experiment [12] (setting [24]) is 3300 nM; in [3] (setting [20]), 7000 nM; in [5] (setting [22]), 220 nM.
On to `CC(C)n1cnc2c(NCc3ccc(-c4ccccn4)cc3)cc(NC(CO)CO)nc21` [Perharidine E, 3-Iso-Propyl-5-(1,3-dihydroxypropylamino)-7-[4-(2-pyridyl)-benzylamino]-imidazo[4,5-b]pyridine], for which the IC50 in experiment [2] (setting [19]) was 340 nM and 350 nM; in experiment [5] (setting [22]) it was 280 nM.

For the origin of these results see US8450342B2, “Perharidines as CDK inhibitors” (Centre Nationale de la Recherche Scientifique, priority 2008, dated 2013).
